Results on three molecules are retold here after publication PMC3124622 (Biochemical and biophysical research communications, 2011).

The target in assay [1] is E. coli TGT Wild-Type (Escherichia coli, UniProt P0A847). Description: Pteridine inhibition of guanine incorporation. It counts as biochemical.
The test system of assay [2] is TGT from rabbit reticulocytes. The following applies: cited from earlier work.
The target in assay [3] is E. coli TGT C145V/T146V/V217G (Escherichia coli, UniProt P0A847, C145V/T146V/V217G). In words: Pteridine inhibition of guanine incorporation. The assay is classed as biochemical. Particulars: C145V/T146V/V217G (triple) mutant; vs guanine; 20 μM tRNA, pH 7.3.
Assay [4] relates to Wild-type and Mutant E. coli TGTs. In words: Pteridine inhibition of wild-type and mutant E. coli TGTs. The assay is classed as biochemical. Particulars: the mutant enzymes.
Assay [5] addresses E. coli TGT C145V/T146V (Escherichia coli, UniProt P0A847, C145V/T146V). In words: Pteridine inhibition of guanine incorporation. The assay is classed as biochemical. Particulars: C145V/T146V mutant; vs guanine; 20 μM tRNA, pH 7.3.
For assay [6], the target named is E. coli TGT V217G (Escherichia coli, UniProt P0A847, V217G). In words: Pteridine inhibition of guanine incorporation. It counts as biochemical. Particulars: V217G mutant; vs guanine; 20 μM tRNA, pH 7.3.
Assay [7] addresses E. coli TGT C145V/T146V/P147N/V217G (Escherichia coli, UniProt P0A847, C145V/P147N/T146V/V217G). Description: Pteridine inhibition of guanine incorporation. It counts as biochemical. The following applies: C145V/T146V/P147N/V217G (quadruple) mutant; vs guanine; 20 μM tRNA, pH 7.3.
Assay [8] relates to E. coli TGT (C145V/T146V/V217G). Description: Queuine incorporation by the E. coli TGT triple mutant. The following applies: queuine concentrations up to 50 μM (data not shown). It counts as biochemical.
The target in assay [9] is T1, human TGT (Homo sapiens, UniProt Q9BXR0). Particulars: queuine as substrate, ref Chen et al. (2011) Nuc. Acids Res. 39, 2834; cited from earlier work.
T1 sequence (Q9BXR0 whole entry): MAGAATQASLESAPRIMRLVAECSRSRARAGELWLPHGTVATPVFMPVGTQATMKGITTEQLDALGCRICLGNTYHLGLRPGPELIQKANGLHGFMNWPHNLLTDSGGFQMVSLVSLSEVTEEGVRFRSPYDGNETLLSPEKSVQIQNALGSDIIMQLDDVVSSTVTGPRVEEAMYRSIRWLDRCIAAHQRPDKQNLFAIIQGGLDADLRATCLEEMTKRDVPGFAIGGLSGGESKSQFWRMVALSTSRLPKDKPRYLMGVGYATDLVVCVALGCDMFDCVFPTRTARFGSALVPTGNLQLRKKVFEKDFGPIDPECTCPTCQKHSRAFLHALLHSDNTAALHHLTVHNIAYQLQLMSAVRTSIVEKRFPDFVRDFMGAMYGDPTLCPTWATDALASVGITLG
T1 sequence (Q9H974 whole entry partner): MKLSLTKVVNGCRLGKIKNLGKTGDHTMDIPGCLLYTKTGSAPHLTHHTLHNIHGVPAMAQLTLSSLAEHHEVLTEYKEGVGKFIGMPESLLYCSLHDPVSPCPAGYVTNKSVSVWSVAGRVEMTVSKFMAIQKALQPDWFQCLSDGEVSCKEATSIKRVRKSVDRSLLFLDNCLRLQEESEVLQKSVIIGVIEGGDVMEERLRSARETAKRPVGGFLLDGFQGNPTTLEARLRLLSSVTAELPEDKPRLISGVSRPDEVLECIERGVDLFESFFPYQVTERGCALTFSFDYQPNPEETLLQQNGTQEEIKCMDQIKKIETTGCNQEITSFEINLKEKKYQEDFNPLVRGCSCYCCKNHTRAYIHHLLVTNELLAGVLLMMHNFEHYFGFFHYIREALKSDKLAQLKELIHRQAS
Assay [10] deals with T1, human TGT. Description: Biopterin inhibition of human TGT. It counts as biochemical.
Assay [11] concerns the target TGT from mouse fibroblasts. The following applies: cited from earlier work.

“Also recorded” adds a separate entry of the source. Like-named read-outs stand apart in the source and are kept apart here.

Broadly, the Ki is a dissociation constant, usually derived from enzyme kinetics or from competition with a known ligand. Broadly, the inhibition is the percentage by which the read-out fell short of the control. As for `Nc1nc2nccnc2c(=O)[nH]1` [Pterin, pterin], the “inhibition (in words)” value in assay [1] (wild-type enzyme) and in assay [4] was “inhibited” in each case. The Ki in assay [1] (wild-type enzyme, vs guanine, 20 μM tRNA, pH 7.3) is 420 nM; in assay [3] it was 1300 nM; in assay [5], 2200 nM; in assay [6] it was 900 nM; in assay [7], 37000 nM. Further, the inhibition in [2] (0.48 μM pterin, rabbit reticulocyte TGT) is 44%.

As a reminder, the Km is the concentration of substrate that gives half-maximal velocity. `Nc1nc2[nH]cc(CN[C@H]3C=C[C@H](O)[C@@H]3O)c2c(=O)[nH]1` [Queuine, queuine]: in [8], the “incorporation of queuine as a substrate” value is given as “does not recognize; also recorded: no incorporation”. Also, in [9], the Km was 0.26 µM and the kcat is 8.2 (±0.2) 10^−3•s^−1.

Turning to biopterin, in assay [10], the “Ki relative to the KM for queuine” value is recorded as “ca. 30 fold”. Further, in assay [10] (with respect to queuine, Dixon and Cornish-Bowden plots), the mode of inhibition entry is recorded as “competitive inhibitor”. Moreover, the “inhibition of wild-type TGT” value in assay [1] (biopterin concentrations up to 3 mM) was “no detectable inhibition”. Also, the inhibition in assay [2] (20 μM biopterin, rabbit reticulocyte enzyme) was 39%. In [11], the Ki was ~1000 nM. The “inhibition (in words)” value in assay [4] is recorded as “inhibited”.
